Earlier results in US20120083772A1, “CORNEAL TREATMENT SYSTEM AND METHOD” (CURVERIGHT LLC, priority 2010, published 2012).

Test system: living cells

For `OO` [hydrogen peroxide], the “concentration that can stop the proliferation of living cells” value is given as 1000 nM.
